Measurements from publication PMC11378297, “Discovery and Profiling of New Multimodal Phenylglycinamide Derivatives as Potent Antiseizure and Antinociceptive Drug Candidates” (ACS Chemical Neuroscience, 2024).
Like-named read-outs stand apart in the source and are kept apart here.

Assay: pharmacokinetic study in mice (serum and brain, non-compartmental analysis)
Format: in vivo, mouse
Details: for Kp / MRT / Tmax / half-life / k el / CL/F / Vd/F: male, CD-1, mouse; for Kp: brain and serum, read-out: Brain-to-serum AUC ratio; for half-life: read-out: t1/2 λz; for k el: read-out: λz (converted); for Vd/F: read-out: Vz/F
Protocol: They were housed in conditions of constant temperature with the 12:12 h light–dark cycle and free access to food and water. […] Moreover, the compound was dissolved in a mixture of DMSO/PEG400/water (1:4:5, v/v/v) and administered p.o. at a dose of 25 mg/kg. […] After allowing the blood to coagulate for 20 min at room temperature, the serum was separated using a 5000g Eppendorf miniSpin centrifuge (Germany) for 10 min. Samples were kept at −80 °C until they were analyzed. The First Ethical Committee on Animal Experimentation in Kraków granted approval for all animal treatments (license no. 270/2019). Concentrations of compound (R)-32 in mouse serum and brain tissue were measured using a liquid chromatography tandem mass spectrometry method (LC-MS/MS). Mouse brains were homogenized in distilled water at the ratio of 1:4 (w/v) using the ULTRA-TURRAX T10 basic tissue homogenizer (IKA, Germany). […] Samples were shaken for 10 min (IKA Vibrax VXR, Germany) and then centrifuged for 5 min at the speed of 8000g (Eppendorf miniSpin centrifuge, Germany). Supernatants were transferred into the autosampler vials, and a sample volume of 1 μL was injected into the LC-MS/MS system. Liquid chromatography was performed on an Exion LC AC HPLC system (Sciex, USA) with a Hypersil Gold C18 analytical column (3 × 50 mm, 5 μm, Thermo Scientific, USA). […] The initial mobile phase composition was 95% B and 5% A for the first 2 min with a linear gradient to 5% B in the next 2 min and then isocratic mode for 2 min with the following rapid change back to 95% B in 0.1 min. The remaining time of elution was set at 95% B. The whole HPLC operation lasted 10 min, and the flow rate was set to 0.4 mL/min. A QTRAP 4500 mass spectrometer (Sciex, USA) equipped with an ESI source, was used for detection. The mass spectrometric parameters were optimized to obtain maximum sensitivity at unit resolution. The ion source temperature was maintained at 450 °C, and the ion spray voltage was set to 5500 V. The CUR was set to 40 psi and the collision gas (CAD) to medium. The MRM experiments were conducted in the positive ion mode by monitoring the precursor to product ion transitions from m/z 422 to 247 (CE = 25 eV) and from m/z 422 to 106 (CE = 57 eV) for compound (R)-32 and from m/z 436 to 207 (CE = 42 eV) for IS. The working solutions for (R)-32 were created in methanol, while the stock solution was made in DMSO at a concentration of 1 mg/mL. […] Two distinct calibration curves were created for serum samples, one for greater concentrations and one for lower amounts. The precipitating agent was also diluted 10 times with calibrators and samples from the highest concentration range. […] The limits used for quantification were 0.001 to 5, 0.1 to 20 μg/mL for serum, and 0.005 to 25 μg/g for brain tissue. Samples with (R)-32 concentrations higher than the quantitative upper limit were 10-fold diluted using the blank matrix, which is either serum or brain homogenate. The method’s precision and accuracy fell within the bounds established by the FDA’s standards for the verification of bioanalytical techniques. During the normal analysis of the samples, no substantial matrix effect was identified, and no stability issues were encountered. The Analyst program version 1.7 was utilized for both data collecting and analysis. Noncompartmental analysis was used to estimate pharmacokinetic parameters of (R)-32 in serum and brain tissue. The area under the mean concentration versus time curve extrapolated to infinity (AUC0-inf) was estimated using the linear trapezoidal rule by combining trapezoid calculation of AUC0–t and the area extrapolated to infinity. The MRT was calculated from AUMC0-inf/AUC0-inf, where AUMC0-inf was estimated by calculation of the total area under the first-moment curve. The terminal slope (λz) was calculated by log–linear regression of the drug concentration versus time data in the terminal phase and the terminal half-life (t0.5) was calculated as 0.693/λz. […]

With CC(=O)N[C@@H](C(=O)N1CCN(c2cccc(OC(F)(F)F)c2)CC1)c1ccccc1 [(R)-32, (R)-N-(2-Oxo-1-phenyl-2-(4-(3-(trifluoromethoxy)phenyl)piperazin-1-yl)ethyl)acetamide] the “MRT after p.o. dosing in comparison to i.p. administration” value was ~4 fold, the “ratios of Cmax and AUC in serum after p.o. dosing compared to i.p. administration of the same dose” value (25 mg/kg) was “lower than 0.5” and the “AUC0–∞” value (brain, 25 mg/kg i.p.) was 274,802.60 ng·min/mL(g). For the same compound, the Cmax (brain, 25 mg/kg i.p.) was 8266.67 ng/mL(g), the “AUC0–∞” value (brain, 25 mg/kg p.o.) was 156,252.29 ng·min/mL(g) and the Cmax (brain, 25 mg/kg p.o.) was 1870.33 ng/mL(g). For the same compound, the “AUC0–∞” value (brain, 50 mg/kg i.p.) was 689,733.29 ng·min/mL(g), the Cmax (brain, 50 mg/kg i.p.) was 21,475.00 ng/mL(g) and the Kp (intraperitoneal, 50 mg/kg) was 1.5. For the same compound, the Kp (ip, 25 mg/kg i.p.) was 1.2, the Kp (po, 25 mg/kg p.o.) was 1.3 and the MRT (ip, brain, 25 mg/kg i.p.) was 45.5 min. For the same compound, the Tmax (ip, brain, 25 mg/kg i.p.) was 15 min, the half-life (ip, brain, 25 mg/kg i.p.) was 80.5 min and the k el (ip, brain, 25 mg/kg i.p.) was 0.00015 s⁻¹. For the same compound, the MRT (ip, brain, 50 mg/kg i.p.) was 47.3 min, the Tmax (ip, brain, 50 mg/kg i.p.) was 15 min and the half-life (ip, brain, 50 mg/kg i.p.) was 62.3 min. For the same compound, the k el (ip, brain, 50 mg/kg i.p.) was 0.000183 s⁻¹, the CL/F (ip, serum, 25 mg/kg i.p.) was 110 mL/min/kg and the MRT (ip, serum, 25 mg/kg i.p.) was 42.3 min. For the same compound, the Tmax (ip, serum, 25 mg/kg i.p.) was 15 min, the Vd/F (ip, serum, 25 mg/kg i.p.) was 12.3 L/kg and the half-life (ip, serum, 25 mg/kg i.p.) was 77.5 min. It also gave a k el (ip, serum, 25 mg/kg i.p.) of 0.00015 s⁻¹, a CL/F (ip, serum, 50 mg/kg i.p.) of 108 mL/min/kg and an MRT (ip, serum, 50 mg/kg i.p.) of 33.6 min. The Tmax (ip, serum, 50 mg/kg i.p.) was 15 min, the Vd/F (ip, serum, 50 mg/kg i.p.) was 9.97 L/kg and the half-life (ip, serum, 50 mg/kg i.p.) was 64.3 min. For the same compound, the k el (ip, serum, 50 mg/kg i.p.) was 0.000183 s⁻¹, the MRT (po, brain, 25 mg/kg p.o.) was 151 min and the Tmax (po, brain, 25 mg/kg p.o.) was 5 min. For the same compound, the half-life (po, brain, 25 mg/kg p.o.) was 133 min, the k el (po, brain, 25 mg/kg p.o.) was 8.33e-05 s⁻¹ and the CL/F (po, serum, 25 mg/kg p.o.) was 210 mL/min/kg. For the same compound, the MRT (po, serum, 25 mg/kg p.o.) was 156 min, the Tmax (po, serum, 25 mg/kg p.o.) was 5 min and the Vd/F (po, serum, 25 mg/kg p.o.) was 38.5 L/kg. For the same compound, the half-life (po, serum, 25 mg/kg p.o.) was 127 min, the k el (po, serum, 25 mg/kg p.o.) was 8.33e-05 s⁻¹ and the Tmax (serum, other: both i.p. and p.o., after both i.p. and p.o. dosing) was ≤ 15 min. The “AUC0–∞” value (serum, 25 mg/kg i.p.) was 228,063.48 ng·min/mL(g), the Cmax (serum, 25 mg/kg i.p.) was 7613.33 ng/mL(g) and the “AUC0–∞” value (serum, 25 mg/kg p.o.) was 118,998.11 ng·min/mL(g). The Cmax (serum, 25 mg/kg p.o.) was 1266.00 ng/mL(g), the “AUC0–∞” value (serum, 50 mg/kg i.p.) was 464,877.54 ng·min/mL(g) and the Cmax (serum, 50 mg/kg i.p.) was 15,900.00 ng/mL(g).
